Laboratory results reported in patent US20260007625A1, “Compounds for the Treatment of Neuromuscular Disorders” (NMD PHARMA A/S, priority 2022, published 2026).

How the values were obtained:
[1] = system: isolated rat soleus muscles exposed to tubocurarine; experiment: Recovery of nerve-stimulated contractile force in isolated rat soleus nerve-muscle preparation after tubocurarine; settings: tubocurarine 115 nM, after 40 mins of compound exposure
Protocol: The current disclosure relates to compounds that inhibit CIC-1 ion channels and increase muscle excitability and thereby improve muscle function in clinical conditions where muscle activation is failing. Such conditions result in loss of contractile function of skeletal muscle, weakness and excessive fatigue. In this series of experiments the compounds were tested for their ability to restore contractile function of isolated rat muscle when the neuromuscular transmission had been compromised akin to neuromuscular disorders.
Experimentally, soleus muscles from 4-5 week old rats were isolated with the motor nerve remaining attached. The nerve-muscle preparations were mounted in experimental setups that enabled electrical stimulation of the motor nerve. Stimulation of the motor nerve led to activation of the muscle fibres and ensuing force production that was recorded. The nerve-muscle preparations were also in these experiments incubated in the standard Krebs Ringer (see example 15) and the solution was heated to 30° C. and continuously equilibrated with a mixture of 95% O2 and 5% CO2, PH ˜7.4.
After mounting the nerve-muscle preparation in the experimental setup, the contractile function of the muscle was initially assessed under the control conditions. Sub-maximal concentration of tubocurarine (115 nM), an acetylcholine receptor antagonist, was then added to the experimental bath to impose partial inhibition of the ability of the motor nerve to activate the muscle fibres. The experimental condition mimics the failing neuromuscular transmission in a range of neuromuscular disorders. After addition of tubocurarine the contractile force declined over the next 90 minutes to 10-50% of the control force. The test compound was then added to obtain the required compound concentration in the bath and the contractile force recovered was measured. To quantify the ability of the compound to restore force the percentage of the initial force that was restored was determined after 40 mins of compound exposure and the point increase is reported in Table 2.

[2] = molecular target: T1, CIC-1 ion channel (Rattus norvegicus, UniProt P35524); experiment: Electrophysiological measurement (Gm, three micro-electrodes) of compound inhibition of CIC-1 in rat soleus muscle fibres; type: cell-based; settings: Gm in whole rat soleus muscle fibres, approx. 30° C., four increasing compound concentrations
T1 construct: from tissue; host or cells: intact soleus muscle of 12-14 week old Wistar rats
T1 sequence (P35524 1-994): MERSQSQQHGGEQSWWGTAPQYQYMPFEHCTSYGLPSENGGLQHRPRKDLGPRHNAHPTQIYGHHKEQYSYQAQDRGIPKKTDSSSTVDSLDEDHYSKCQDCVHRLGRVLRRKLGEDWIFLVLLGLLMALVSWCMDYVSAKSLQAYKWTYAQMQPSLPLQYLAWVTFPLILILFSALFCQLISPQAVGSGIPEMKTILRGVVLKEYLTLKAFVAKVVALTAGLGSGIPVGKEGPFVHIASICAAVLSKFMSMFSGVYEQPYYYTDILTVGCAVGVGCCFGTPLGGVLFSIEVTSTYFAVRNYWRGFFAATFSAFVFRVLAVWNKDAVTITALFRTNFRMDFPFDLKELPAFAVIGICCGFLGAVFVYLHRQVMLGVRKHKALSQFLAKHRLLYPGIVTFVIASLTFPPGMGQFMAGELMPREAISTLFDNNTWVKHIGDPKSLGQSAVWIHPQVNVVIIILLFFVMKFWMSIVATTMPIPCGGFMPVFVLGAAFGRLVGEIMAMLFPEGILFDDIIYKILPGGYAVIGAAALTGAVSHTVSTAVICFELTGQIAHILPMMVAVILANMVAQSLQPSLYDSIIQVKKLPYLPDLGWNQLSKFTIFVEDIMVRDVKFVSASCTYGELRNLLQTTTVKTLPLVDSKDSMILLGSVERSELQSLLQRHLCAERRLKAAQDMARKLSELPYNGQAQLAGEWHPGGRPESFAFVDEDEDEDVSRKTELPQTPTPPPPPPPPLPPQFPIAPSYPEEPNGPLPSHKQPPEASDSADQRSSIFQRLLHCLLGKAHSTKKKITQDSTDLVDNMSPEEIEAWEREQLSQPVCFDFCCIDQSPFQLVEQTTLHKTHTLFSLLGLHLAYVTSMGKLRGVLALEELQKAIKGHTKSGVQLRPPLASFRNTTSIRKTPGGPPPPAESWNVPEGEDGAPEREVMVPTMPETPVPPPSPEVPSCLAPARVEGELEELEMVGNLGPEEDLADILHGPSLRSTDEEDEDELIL
Protocol: Apparent CIC-1 affinity was reported by the concentration of compound at which 50% of the compound's full inhibition of CIC-1 was observed (EC50).
Experimentally, Gm was measured in individual fibres of whole rat soleus muscles using a three micro-electrodes technique described in this example and in full detail elsewhere (Riisager et al., Determination of cable parameters in skeletal muscle fibres during repetitive firing of action potentials. Journal of Physiology, 2014, 592, 4417-4429). Briefly, intact rat soleus muscles were dissected out from 12-14 week old Wistar rats and placed in an experimental chamber that was perfused with a standard Krebs Ringer solution containing 122 mM NaCl, 25 mM NaHCO3, 2.8 mM KCl, 1.2 mM KH2PO4, 1.2 mM MgSO4, 1.3 mM CaCl2), 5.0 mM D-glucose. During experiments, the solution was kept at approx. 30° C. and continuously equilibrated with a mixture of 95% O2 and 5% CO2, PH ˜7.4. The experimental chamber was placed in Nikon upright microscope that was used to visualize individual muscle fibres and the three electrodes (glass pipettes filled with 2 M potassium citrate). For Gm measurements, the electrodes were inserted into the same fibre with known inter-electrode distances of 0.35-0.5 mm (V1-V2, X1) and 1.1-1.5 mm (V1-V3, X3). The membrane potential of the impaled muscle fibre was recorded by all electrodes. Two of the electrodes were furthermore used to inject 50 ms current pulses of −30 nA. […] The steady state voltage deflection at each distance was divided by the magnitude of current injected (−30 nA) and the resulting transfer resistances were plotted against inter-electrode distance and the data was fitted to a mono-exponential function from which Gm could be calculated using linear cable theory.
To establish a dose response relationship, Gm was first determined in 10 muscle fibres in the absence of compound and then at four increasing compound concentrations with Gm determinations in 5-10 fibres at each concentration. The average Gm values at each concentration were plotted against compound concentration and the data was fitted to sigmoidal function to obtain an EC50 value.

[3] = system: Lewis rats; experiment: In situ isometric hindlimb force in anaesthetised rats under partial neuromuscular block by Cisatracurium; type: in vivo, rat; settings: sodium salt, 80 Hz stimulation, Cisatracurium infusion
Protocol: Isometric hindlimb force was measured in 12-week old female Lewis rats in the presence and absence of compound.
Rats were placed under anaesthesia with isoflurane (2-4%), intubated and subsequently connected to a micro ventilator (Microvent 1, Hallowell EMC, US). Two stimulation electrodes were inserted through the skin to stimulate the sciatic nerve. A small incision was made proximal to the ankle, to expose the Achilles tendon, which was tied by cotton string, and connected to a force transducer (Fort250, World Precision Instruments) with adjustable position (Vernier control). The Achilles tendon was then cut distal to the attached cotton string. […]
Muscle contractile properties were assessed by applying an electrical current (under supramaximal voltage conditions) to the nerve and recording the force generated by the muscle. The muscle was stretched until maximal force was obtained, when assessed by 2 Hz stimulation. Isometric force was measured every 30 seconds at 12 Hz (Twitch), 10 pulses, and at every 5 minutes at 80 Hz (Tetanic) for 1 second (80 pulses). […] The effect of test article was assessed on its ability to increase force generated from the stimulation pattern applied. The effect was assessed in the ability to increase force per se (tetanic, 80 Hz, stimulation), and the ratio between individual twitch peaks (12 Hz stimulation). […]

Row | Structure (SMILES) | Point increase, percentage of initial force that was restored ([1]; test compound 50 μM) | EC50 [2] | Point increase, percentage of initial force that was restored ([1]; test compound 10 μM) | also measured
1 | COc1c(C)cc(F)c(OC)c1C(=O)O [Compound A-1, 3-fluoro-2,6-dimethoxy-5-methylbenzoic acid] | 19% |  |  | 
2 | COc1c(F)cc(Br)c(OC)c1C(=O)O [Compound A-2, 3-bromo-5-fluoro-2,6-dimethoxybenzoic acid] |  |  |  | Point increase, percentage of initial force that was restored ([1]; test compound 100 μM): 16%
3 | COc1c(Cl)cc(Cl)c(OC)c1C(=O)O [Compound A-3, 3,5-Dichloro-2,6-dimethoxybenzoic acid] | 46% | 7.4 µM |  | 
4 | Cc1cc(Cl)c(OC(F)(F)F)c(C(=O)O)c1C [Compound A-4, 3-chloro-5,6-dimethyl-2-(trifluoromethoxy)benzoic acid] |  | 1.7 µM | 23% | 
5 | Cc1cc(Cl)c(OC2CC2)c(C(=O)O)c1C [Compound A-5, 3-chloro-2-cyclopropoxy-5,6-dimethylbenzoic acid] | 48% | 6.6 µM |  | 
6 | COc1c(Cl)cc(C)c(Cl)c1C(=O)O [Compound A-6, 2,5-dichloro-6-methoxy-3-methylbenzoic acid] |  | 5.8 µM | 28% | 
7 | COc1c(C)cc(Cl)c(OC)c1C(=O)O [Compound A-7, 3-chloro-2,6-dimethoxy-5-methylbenzoic acid] | 44% | 5.3 µM |  | increase in tetanic force ([3]; 2.5 mg/kg i.v. in PBS): 27%
8 | CSc1c(Cl)cc(C)c(C)c1C(=O)O [Compound A-8, 3-chloro-5,6-dimethyl-2-(methylsulphanyl)benzoic acid] |  | 3.2 µM | 24% | 
9 | Cc1cc(Cl)c(OC(F)F)c(C(=O)O)c1C [Compound A-9, 3-chloro-2-(difluoromethoxy)-5,6-dimethylbenzoic acid] | 50% | 4.3 µM |  | 
10 | Cc1cc(Cl)c(OCF)c(C(=O)O)c1C [Compound A-10, 3-chloro-2-(fluoromethoxy)-5,6-dimethylbenzoic acid] |  | 4.1 µM | 21% | 
11 | COc1c(F)cc(C)c(C)c1C(=O)O [Compound A-11, 3-fluoro-2-methoxy-5,6-dimethylbenzoic acid] | 25% |  |  | 
12 | CCOc1c(Cl)cc(C)c(C)c1C(=O)O [Compound A-12, 3-chloro-2-ethoxy-5,6-dimethylbenzoic acid] | 39% |  |  | 
13 | COc1c(Br)cc(C)c(C)c1C(=O)O [Compound A-13, 3-bromo-2-methoxy-5,6-dimethylbenzoic acid] |  | 4.4 µM | 29% | 
14 | COc1c(Cl)cc(C)c(C)c1C(=O)O [Compound A-14, 3-chloro-2-methoxy-5,6-dimethylbenzoic acid] | 44% | 3.2 µM |  | increase in tetanic force ([3]; 10 mg/kg p.o. in PBS): 45%
